Results taken from US12350260B2 (priority 2019, dated 2025).
Where “and” joins values, the source holds several entries; their conditions need not be identical. Equal values may be shown once.

Experiments:
[1] = target: T1, PAR-2 (Homo sapiens, UniProt P55085); conditions: cited from earlier work
[2] = target: T1, PAR-2; conditions: cited from earlier work; remark: listed apart in the source
[3] = tested on: DRG neurons; format: cell-based, rat
[4] = tested on: co-cultured sensory neurons and keratinocytes; format: cell-based, rat DRG neurons, human keratinocytes
[5] = tested on: sensory neurons; format: cell-based, rat
[6] = tested on: co-cultured DRG neurons and keratinocytes; format: cell-based, rat DRG neurons, human keratinocytes
[7] = in vivo, cited from earlier work
[8] = not told; cited from earlier work
[9] = tested on: PAR-2; format: cell-based, rat
[10] = tested on: primary human epidermal keratinocytes; format: cell-based

T1 sequence (P55085 26-397): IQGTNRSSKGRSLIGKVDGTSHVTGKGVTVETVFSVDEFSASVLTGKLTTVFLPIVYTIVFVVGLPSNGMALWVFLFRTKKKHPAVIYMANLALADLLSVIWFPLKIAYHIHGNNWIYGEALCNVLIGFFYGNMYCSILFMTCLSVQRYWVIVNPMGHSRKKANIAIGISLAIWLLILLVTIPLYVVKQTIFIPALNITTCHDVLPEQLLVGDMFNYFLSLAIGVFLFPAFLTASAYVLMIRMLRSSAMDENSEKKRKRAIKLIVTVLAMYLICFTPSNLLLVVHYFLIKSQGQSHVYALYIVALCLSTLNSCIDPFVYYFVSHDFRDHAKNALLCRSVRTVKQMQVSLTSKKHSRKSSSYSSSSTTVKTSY

COc1ccc(CCN2CCC(Nc3nc4ccccc4n3Cc3ccc(F)cc3)CC2)cc1 [Astemizole]
ERK1/2 phosphorylation [1]: inhibit | PAR-2 calcium signaling / calcium mobilization [2]: inhibit

CCOC(=O)N1CCC(=C2c3ccc(Cl)cc3CCc3cccnc32)CC1 [Loratadine]
ERK1/2 phosphorylation [1]: inhibit | PAR-2 calcium signaling / calcium mobilization [2]: inhibit

CCC(C)[C@H](NC(=O)[C@H](CC1CCCCC1)NC(=O)c1ccno1)C(=O)N1CCC2(CCc3ccccc32)CC1 (some centres unmarked) [GB83]
normalized amplitude of the first peak in responding cells (% of P-CTX-2 alone) [3]: 31.2±4.2% | normalized amplitude values of the plateau in responding cells (% of P-CTX-2 alone) [3]: 50.1±8.7% | normalized percentage of cells responding with a second peak (% of P-CTX-2 alone) [3]: 16.7±4.1% | normalized percentage of cells responding with the first peak (% of P-CTX-2 alone) [3]: 34.5±10.5% | normalized percentage of neurons responding with a plateau (compared to P-CTX-2 alone) [3]: 7.9±3.3% | normalized second peak amplitude in responding cells (% of P-CTX-2 alone) [3]: 27.2±5.0% | PbTx-1-induced SP release with pre-treatment (normalized levels) [4]: 47±8.2% | PbTx-1-induced SP release, decreased to (% of PbTx-1 alone) [4]: 40.9±7.4% | inhibitory effect on PbTx-1-induced SP release [4]: 45.3±6.9% | PAR-2 calcium signaling / calcium mobilization [2]: inhibit | normalized percentage of cells responding to PbTx-1 with the first peak [5]: 75.7±7.28% | normalized percentage of cells responding to PbTx-1 with the plateau [5]: 37.7±7.7% | normalized percentage of cells responding to PbTx-1 with the second peak [5]: 48.9±7.38% | P-CTX-2-induced SP release, reduced to (% of P-CTX-2 alone) [6]: 15.0±7.9%

2-aminothiazol-4-yl-LIGRL-NH2 ({2‑aminothiazol‑4‑yl}-LIGRL-NH2)
ERK1/2 phosphorylation [1]: inhibit | PAR-2 calcium signaling / calcium mobilization [2]: inhibit

Cl.Cn1cc(C2=C(c3c4n(c5ccccc35)CCC(CN)C4)C(=O)NC2=O)c2ccccc21 (centres unmarked) [BimX, Bisindolylmaleimide X hydrochloride]
PbTx-1-induced SP release with pre-treatment (normalized levels) [4]: 37.4±5.9% | normalized amplitude values in each phase (FIGS. 9B, 9D, 9F) [5]: No significant modification | normalized percentage of cells responding to PbTx-1 with the first peak [5]: did not decrease | normalized percentage of cells responding to PbTx-1 with the second peak [5]: 67.7±7.5%

CCc1nn(CCCN2CCN(c3cccc(Cl)c3)CC2)c(=O)n1CCOc1ccccc1 [Nefazodone]
ERK1/2 phosphorylation [1]: inhibit | PAR-2 calcium signaling / calcium mobilization [2]: inhibit

OC[C@@H](O)[C@@H](O)[C@H](O)[C@H](O)CO [mannitol]
effectiveness in severe cases of poisoning supported early ([7]; iv): effectiveness | effectiveness in non-severe forms of intoxication [7]: not effective

COc1ccccc1OCCNCC(O)COc1cccc2[nH]c3ccccc3c12 (centres unmarked) [Carvedilol]
ERK1/2 phosphorylation [1]: inhibit | PAR-2 calcium signaling / calcium mobilization [2]: inhibit

C1CCC[C@H]2CCCN3CC[C@@H](CCCCCC[C@@H]4CCCN5CC[C@@H](CC1)O[C@@H]45)O[C@@H]23 [Xestospongin C]
PbTx-1-induced SP release with pre-treatment (normalized levels) [4]: 35.5±9.7% | normalized amplitude values in each phase (FIGS. 9B, 9D, 9F) [5]: No significant modification | normalized percentage of cells responding to PbTx-1 with the first peak [5]: did not decrease | normalized percentage of cells responding to PbTx-1 with the second peak [5]: 62.5±14.7%

CC(C)C[C@H](NC(=O)[C@H](Cc1ccccc1)NC(=O)OCc1ccccc1)C(=O)C=O [Z-FL-COCHO, Cbz-Phe-Leu-COCHO]
cell permeability [8]: poorly cell-permeant | PbTx-1-induced SP release, decreased to (% of PbTx-1 alone) [4]: 80.4±4.1% | normalized percentage of cells responding to PbTx-1 with the first peak [5]: 48.2±11.1% | normalized percentage of cells responding to PbTx-1 with the plateau [5]: 41.0±13.8% | normalized percentage of cells responding to PbTx-1 with the second peak [5]: 45.2±11.1% | P-CTX-2-induced SP release, reduced to (% of P-CTX-2 alone) [6]: 13.1±6.1%

NC1=N[C@H](O)[C@H]2[C@H]3O[C@]4(O)O[C@@H]([C@@H](O)[C@@]2(N1)[C@@H]4O)[C@]3(O)CO [TTX, Tetrodotoxin]
normalized amplitude of the first peak in responding cells (% of P-CTX-2 alone) [3]: 53.6±8.0% and 47.8±7.2% | normalized amplitude values of the plateau in responding cells (% of P-CTX-2 alone) [3]: 53.2±1.3% and 84.8±6.6% | normalized percentage of cells responding with the first peak (% of P-CTX-2 alone) [3]: 34.9±13.4% and 41.6±12.5% | normalized second peak amplitude in responding cells (% of P-CTX-2 alone) [3]: 33.7±3.5% and 61.9±16.1% | membrane expression of PAR-2 [9]: 95.3±4.9% and 92.7±1.3% | average ratio of the P-CTX-2-mediated calcium signal (ΔF/F0) [10]: 0.34±0.11 | decrease of the average ratio of the P-CTX-2-mediated calcium signal [10]: approximately 70% | normalized amplitude of the second peak [5]: 3.4±3.4% | normalized percentage of cells responding to PbTx-1 with the first peak [5]: 65.20±14.50% and 34.40±21.24% | P-CTX-2-induced SP release, reduced to (% of P-CTX-2 alone) [6]: 29.3±7.3% and 53.1±11.3%

CC[C@H](C)[C@H](NC(=O)[C@H](CC1CCCCC1)NC(=O)c1ccno1)C(=O)N1CCC2(CCc3ccccc32)CC1 [GB88]
PAR-2 calcium signaling / calcium mobilization [2]: inhibit

Cc1c(C(=O)Nc2cccc(C(F)(F)F)c2)cc(-c2ccccc2)n1CCCN1CCOCC1 [HC-067047]
PbTx-1-induced SP release with pre-treatment (normalized levels) [4]: 58.7±14.5% and 41.3±14.5% | normalized amplitude values in each phase (FIGS. 9B, 9D, 9F) [5]: No significant modification | normalized percentage of cells responding to PbTx-1 with the first peak [5]: 59.4±11.5% | normalized percentage of cells responding to PbTx-1 with the plateau [5]: 35.0±16.1% | normalized percentage of cells responding to PbTx-1 with the second peak [5]: 35.6±11.5%
